Like-named read-outs stand apart in the source and are kept apart here.
Molecular target: T1, AAK1 (full length human) in transfected HEK293F cells (Homo sapiens, UniProt Q2M2I8)
T1 construct: expressed in transfected cells; host or cells: HEK293F
Assay: HEK281 cell-based assay (phospho-mu2 Western blot)
Conditions: HEK281 cell-based assay, read-out: CBA IC50
Description: HEK293F cells were cultured in media containing DMEM (Gibco, cat. #11965), 10% FBS (SAFC Biosciences, cat. #12103C), 1×GPS (glutamine, penicillin and streptomycin). On day one, cells were plated on a 10 cm dish so that they are ˜80% confluent at time of transfection. Roughly 12 million cells were in a 10 cm dish at time of transfection. On day two, each dish was transfected with 48 ug DNA and 144 ul Lipofectamine 2000 (Invitrogen, cat.#11668-019). The DNA was comprised of a mixture (per 10 cm dish) containing 3 ug AAK1/HA/pIRES (full length human, NCBI accession no. NP_055726.2), 45 μg Flag/AP2MI/pcDNA (full length human), and 1.5 ml OPTI-MEM. The Lipofectamine 2000 is made up of a mixture (per 10 cm dish) containing 144 μl Lipofectamine 2000 and 1.5 ml OPTI-MEM. Each mixture was transferred to individual 15 ml tubes and incubated at RT for 5 minutes, and then the two mixes were combined and incubated at RT for 20 minutes. Growth media was then aspirated from each 10 cm plate and replaced with 10 ml of DMEM+10% FBS (no GPS). Finally, 3 ml DNA/Lipofectamine mix was added to each 10 cm dish and mix gently followed by incubate of plate overnight at 37° C. and 5% CO2.
On day three, compounds were diluted in 100% DMSO at 1000× final concentration, followed by 3-fold serial dilutions for a total of 5 concentrations tested. Four compounds were tested per 10 cm dish. One ul of each compound dilution was then pipetted into a deep-well, 96-well plate, followed by addition of 500 μl DMEM+0.5% FBS into each well for a 2× final concentration of each compound. Cells were resuspended in a 10 cm dish by simple pipetting (HEK293 cells come off the plate that easy at this point) and then transferred to a 50 ml conical tube and pelleted by centrifugation at 1000 rpm for 5 min. Cell pellets were then resuspended in 2.75 ml DMEM+0.5% FBS per 10 cm dish and 100 μl of cell suspension transferred into each well of 96-well TC plate. Finally, 100 μl of 2× compound diluted in DMEM+0.5% FBS was then added into wells containing cell suspension for a 1× final concentration. Plates were then incubated at 37° C. and 5% CO2 for 3 hours followed by transferring of cell suspensions from each well into 12-tube PCR strips. The PCR strips were spun in a tip rack at 1000 rpm for 5 minutes to pellet cells and media was then removed by pipetting without disturbing the cell pellet.
To prepare for Western Blot analysis, cell pellets were resuspend in 40 ul 1×LDS-PAGE sample buffer (Invitrogen, cat.# NP0008)+2× Halt phophatase and protease inhibitor cocktail (Thermo Scientific, cat.#1861284), followed by sonicating each with microtip sonicator set at 5 for 8-10 seconds. Five ul of 10× NuPage Sample Reducing Agent (with […]) was to each sample followed by heat denaturing at 70 C. for 10 min on PCR machine. A total of 10 μl per sample was loaded into each lane of a 4-20% Tris-Glycine Criterion 26-well gel (Biorad, cat.#345-0034) for the phospho-mu2 blot and 10 μl per lane in a 4-12% Bis-Tris (+MES buffer) NuPAGE 26-well gel (Invitrogen, cat.# WG1403BX10) for the mu2 blot. For controls, 2 ng of phospho-mu2 or 20 ng mu2/Flag proteins were loaded in the last well of each gel. After SDS-PAGE, samples on each gel were transferred to PVDF membrane using an iBlot and membranes were blocked for one hour in TBST+5% milk, followed by wash 3× for 5-10 min with TBST. Criterion gels were probed with rabbit anti-phospho-mu2 (1:5000; a rabbit polyclonal antibody produced by New England Peptide and affinity purified at Lexicon) in TBST+5% BSA, whereas, NuPAGE gels were probed with mouse anti-Flag (1:500; Sigma, cat.# F1804) in TBST+5% milk, and these primary antibodies were incubated overnight at 4° C. on a rocker.

[1] = Table 1 imidazo[1,2-b]pyridazines
[2] = pyrazolo[1,5-a]pyrimidine-based inhibitors

T1 sequence (Q2M2I8 1-863 isoform Q2M2I8-2): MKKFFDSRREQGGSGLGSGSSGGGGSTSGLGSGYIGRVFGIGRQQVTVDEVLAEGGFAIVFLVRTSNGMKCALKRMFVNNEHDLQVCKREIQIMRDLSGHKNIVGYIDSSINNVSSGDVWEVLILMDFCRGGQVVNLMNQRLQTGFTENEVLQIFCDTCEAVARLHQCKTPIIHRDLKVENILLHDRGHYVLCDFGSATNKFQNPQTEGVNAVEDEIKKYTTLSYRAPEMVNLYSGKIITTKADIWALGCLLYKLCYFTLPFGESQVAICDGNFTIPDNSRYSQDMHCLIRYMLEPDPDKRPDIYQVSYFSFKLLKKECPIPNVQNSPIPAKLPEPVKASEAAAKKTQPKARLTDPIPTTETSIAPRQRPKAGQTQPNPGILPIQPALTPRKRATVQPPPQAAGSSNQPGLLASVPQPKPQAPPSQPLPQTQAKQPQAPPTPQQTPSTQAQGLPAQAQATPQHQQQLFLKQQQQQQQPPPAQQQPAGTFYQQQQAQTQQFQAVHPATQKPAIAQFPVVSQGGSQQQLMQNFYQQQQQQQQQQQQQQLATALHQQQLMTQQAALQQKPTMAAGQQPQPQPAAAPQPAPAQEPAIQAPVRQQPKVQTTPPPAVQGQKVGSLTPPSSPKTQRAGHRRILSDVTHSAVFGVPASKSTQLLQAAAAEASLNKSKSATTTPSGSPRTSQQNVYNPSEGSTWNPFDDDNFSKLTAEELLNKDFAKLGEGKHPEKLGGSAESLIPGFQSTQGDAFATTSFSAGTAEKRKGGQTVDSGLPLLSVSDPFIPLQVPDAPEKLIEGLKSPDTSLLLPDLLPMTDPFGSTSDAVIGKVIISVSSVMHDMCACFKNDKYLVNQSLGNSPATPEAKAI

Compound | IC50 [1] | IC50 [2]
COc1cnccc1-c1cnc2ccc(-c3cccc(C(=O)CCC(C)C)c3)nn12 | ≤ 100 nM | –
CC(C)CCC(=O)c1cccc(-c2ccc3ncc(-c4ccc(CN)cc4)n3n2)c1 | ≤ 100 nM | –
CC(=O)c1cccc(-c2ccc3ncc(-c4ccc(CN)cc4)n3n2)c1 | ≤ 100 nM | –
CC(C)CNC(=O)c1cccc(-c2ccc3ncc(-c4ccc(CN)cc4)n3n2)c1 | ≤ 100 nM | –
CCCCNc1ccc2ncc(-c3ccc(CN)c(F)c3)n2n1 | ≤ 1000 nM | –
NCc1ccc(-c2cnc3ccc(NCC4CCCCC4)nn23)cc1 | ≤ 1000 nM | –
CN(C)CCOCc1ccc(-c2cnc3ccc(NCCC(C)(C)C)nn23)cc1 | ≤ 100 nM | –
Brc1cnn2ccc(NCCCOC3CCCC3)nc12 | – | ≤ 1000 nM
CC(C)(C)OCCNc1ccc2ncc(-c3ccc(C(N)=O)cc3)n2n1 | ≤ 100 nM | –
COc1cccc(CCNc2ccc3ncc(-c4ccc(C(N)=O)cc4)n3n2)c1 | ≤ 100 nM | –
CC(C)CNC(=O)c1cncc(-c2ccc3ncc(-c4ccc(CN)cc4)n3n2)c1 | ≤ 100 nM | –
CCCCNc1ccc2ncc(C(=O)Nc3ccc(C(=O)NCCN(C)C)cc3)n2n1 | ≤ 100 nM | –
COCCNc1ccn2ncc(-c3ccc(C(=O)NCCN)cc3)c2n1 | – | ≤ 1000 nM
CC(C)(C)CCNc1ccn2ncc(-c3ccc(C(=O)NCCN)cc3)c2n1 | – | ≤ 1000 nM
COCCNc1ccn2ncc(-c3ccccc3)c2n1 | – | ≤ 1000 nM
COc1cnccc1-c1cnc2ccc(-c3cccc(C(=O)NCC(C)C)c3)nn12 | ≤ 100 nM | –
CNC(=O)c1ccc(-c2cnc3ccc(-c4cccc(C(=O)NCC(C)C)c4)nn23)cc1 | ≤ 100 nM | –
CC(C)NC(=O)N1CCN(c2ccc3ncc(-c4ccccc4)n3n2)CC1 | ≤ 100 nM | –
CCCCSc1ccc2ncc(-c3ccc(CN)cc3)n2n1 | ≤ 1000 nM | –
COc1ccccc1-c1cnn2ccc(NC[C@@H]3CCCN3C(=O)NC(C)(C)C)nc12 | – | ≤ 100 nM
CC(C)OC(=O)N1CCC[C@H]1CNc1ccc2ncc(Cl)n2n1 | ≤ 100 nM | –

Compound | IC50 [1] | IC50 [2]
CC(C)(C)OC(=O)N1CCC[C@H]1CCNc1ccc2ncc(-c3ccc(CN)cc3)n2n1 | ≤ 100 nM | –
CCc1ccccc1-c1cnn2ccc(NC[C@@H]3CCCN3C(=O)OC(C)(C)C)nc12 | – | ≤ 100 nM
CC(C)(C)OC(=O)N1CCC[C@H]1CNc1ccn2ncc(-c3ccc(C(N)=O)cc3)c2n1 | – | ≤ 1000 nM
CC(C)(C)OC(=O)N1CCC[C@H]1CNc1ccn2ncc(C(F)(F)F)c2n1 | – | ≤ 100 nM
CC(C)(C)OC(=O)N1CCC[C@H]1CNc1ccn2ncc(I)c2n1 | – | ≤ 100 nM
CC(C)(C)OC(=O)N1CCC[C@H]1CNc1ccn2ncc(-c3ccccc3)c2n1 | – | ≤ 100 nM
CCOC(=O)N(C)CCNc1ccn2ncc(-c3ccc(C(=O)NC)cc3)c2n1 | – | ≤ 100 nM
CNC(=O)c1ccc(-c2cnn3ccc(NCCN(C)C(=O)OCC(C)C)nc23)cc1 | – | ≤ 1000 nM
CC(C)OC(=O)N1CCN(c2ccn3ncc(-c4cccn(C)c4=O)c3n2)CC1 | – | ≤ 100 nM
CCOc1ncccc1-c1cnn2ccc(N3CCN(C(=O)OC(C)C)CC3)nc12 | – | ≤ 100 nM
CC(C)OC(=O)N1CCN(c2ccn3ncc(-c4cccnc4F)c3n2)CC1 | – | ≤ 100 nM
COc1nc(C)ccc1-c1cnn2ccc(N3CCN(C(=O)OC(C)C)CC3)nc12 | – | ≤ 100 nM
COc1cnccc1-c1cnn2ccc(N3CCN(C(=O)OC(C)C)CC3)nc12 | – | ≤ 100 nM
COc1ncc(F)cc1-c1cnn2ccc(N3CCN(C(=O)OC(C)C)CC3)nc12 | – | ≤ 100 nM
CC(C)OC(=O)N(C)CCNc1ccn2ncc(-c3ccc(CN)cc3)c2n1 | – | ≤ 100 nM
COc1ccncc1-c1cnn2ccc(NCCN(C)C(=O)OC(C)C)nc12 | – | ≤ 100 nM
CNCCNC(=O)c1ccc(-c2cnn3ccc(NCCN(C)C(=O)OC(C)C)nc23)cc1 | – | ≤ 100 nM
COCCNc1ccn2ncc(-c3ccc(C(=O)NCCNC(=O)OC(C)(C)C)cc3)c2n1 | – | ≤ 1000 nM
CN(CCNc1ccc2ncc(-c3ccc(C#N)cc3)n2n1)C(=O)OC(C)(C)C | ≤ 100 nM | –
CN(CCNc1ccc2ncc(-c3ccccc3)n2n1)C(=O)OC(C)(C)C | ≤ 100 nM | –

Other lines, results leading:

IC50 [1] | IC50 [2] | Compound
– | ≤ 100 nM | COc1ncccc1-c1cnn2ccc(N3CCN(C(=O)CC(C)C)CC3)nc12
– | ≤ 100 nM | COCCOC(=O)N1CCN(c2ccn3ncc(-c4cccnc4OC)c3n2)CC1
– | ≤ 10 nM | COc1cnccc1-c1cnn2ccc(NCCc3ccccc3OC(F)(F)F)nc12
– | ≤ 100 nM | NCc1ccc(-c2cnn3ccc(NCCOC4CCCC4)nc23)cc1
– | ≤ 100 nM | CC(C)(C)COCCNc1ccn2ncc(-c3ccc(CN)cc3)c2n1
– | ≤ 100 nM | CC(C)(C)OCCNc1ccn2ncc(-c3ccc(CN)cc3)c2n1
– | ≤ 10 nM | NCc1ccc(-c2cnn3ccc(NCCc4ccccc4OC(F)(F)F)nc23)cc1
– | ≤ 100 nM | COCCNc1ccn2ncc(-c3ccc(CN)cc3)c2n1
– | ≤ 100 nM | NCc1ccc(-c2cnn3ccc(NCCCOC4CCCC4)nc23)cc1
– | ≤ 100 nM | CCCCNc1ccn2ncc(-c3ccc(CN)cc3)c2n1
– | ≤ 100 nM | COc1ccncc1-c1cnn2ccc(NCCc3ccccc3OC(F)(F)F)nc12
– | ≤ 100 nM | CCCCNc1ccn2ncc(-c3ccc(C(=O)NCCNC)cc3)c2n1
– | ≤ 100 nM | COc1cnccc1-c1cnn2ccc(NCCOC3CCCC3)nc12
– | ≤ 100 nM | COc1cnccc1-c1cnn2ccc(NCCOC(C)(C)C)nc12
– | ≤ 100 nM | CCCCNc1ccn2ncc(-c3ccc(C(=O)NCCN)cc3)c2n1
– | ≤ 100 nM | COc1cnccc1-c1cnn2ccc(NCCCOC3CCCC3)nc12
– | ≤ 10 nM | COc1cnccc1-c1cnn2ccc(NCCN(C)C(=O)OC(C)C)nc12
– | ≤ 10 nM | CC(C)OC(=O)N(C)CCNc1ccn2ncc(-c3ccc(C(N)=O)cc3)c2n1
– | ≤ 10 nM | CNC(=O)c1ccc(-c2cnn3ccc(NCCN(C)C(=O)OC(C)C)nc23)cc1
– | ≤ 10 nM | CC(C)OC(=O)N(C)CCNc1ccn2ncc(-c3ccc(C4CCCN4)cc3)c2n1 (stereo not shown)
– | ≤ 10 nM | COc1cnccc1-c1cnn2ccc(NCCN(C)C(=O)OC(C)(C)C)nc12
– | ≤ 10 nM | CN(CCNc1ccn2ncc(-c3ccc(C(N)=O)cc3)c2n1)C(=O)OC(C)(C)C
– | ≤ 10 nM | CNC(=O)c1ccc(-c2cnn3ccc(NCCN(C)C(=O)OC(C)(C)C)nc23)cc1

— patent publication US20150164899A1, “INHIBITION OF ADAPTOR ASSOCIATED KINASE 1 FOR THE TREATMENT OF PAIN” (priority 2012, published 2015)
